# Literature values in US7250416B2, “Azacytosine analogs and derivatives” (SuperGen, Inc., priority 2005, dated 2007).
# Like-named read-outs stand apart in the source and are kept apart here.
# How the values were obtained:
# [1] = for steady-state plasma concentration: estimated
# cytidine deaminase = target: T1, cytidine deaminase (Homo sapiens, UniProt P32320); conditions: by cytidine deaminase at equal concentrations
# T1 construct: the enzyme purified from human liver; from tissue; host or cells: human liver
# T1 sequence (P32320 whole entry): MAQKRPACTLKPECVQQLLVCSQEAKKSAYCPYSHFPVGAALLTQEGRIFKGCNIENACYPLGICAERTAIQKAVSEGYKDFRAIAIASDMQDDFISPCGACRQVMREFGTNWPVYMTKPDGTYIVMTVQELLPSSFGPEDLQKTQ
Structure (SMILES),time of hydrolysis to the amidino-urea derivative (1h) (alkaline medium),"stability in aqueous media (aqueous media, hydrolytic degradation)",maximum infusion time of reconstituted solution (reconstituted aqueous solution stored in the refrigerator for less than 7 hr),steady-state plasma concentration ([1]; 6-hour infusion of 100 mg/m^2),range of concentrations during infusion ([1]; 600-mg/m^2 infusion),half-life after discontinuing the infusion ([1]; humans),"total urinary excretion, % of the administered dose ([1]; humans)",volume of distribution ([1]; humans),"terminal half-life ([1]; humans, measured by bioassay)",steady-state plasma concentration ([1]; infusion rate of 1 mg/kg/h),"plasma concentration ([1]; infusion times of 40–60 hours, infusion rate 1 mg/kg/h)","penetration into the cerebrospinal fluid, % of the plasma concentration ([1]; man, end of a 36-hour intravenous infusion)","plasma concentration ([1]; patients, 100 mg/m^2 as a 3-hour infusion)",rate of deamination relative to that of decitabine (cytidine deaminase)
"Nc1ncn([C@H]2C[C@H](O)[C@@H](CO)O2)c(=O)n1 [decitabine, 5-aza-2′-deoxycytidine]",within a few minutes,unstable,≤ 3 h,0.31 to 0.39 µg/mL,0.41 to 16 µg/mL,12 to 20 min,less than 1%,about 4.6 L/kg,10 to 35 min,0.2 to 0.5 µg/mL,430 to 760 ng/mL,14–21%,about 0.4 μg/ml,
"Nc1ccn([C@H]2C[C@H](O)[C@@H](CO)O2)c(=O)n1 [deoxycytidine, 2′-deoxycytidine]",,,,,,,,,,,,,,about 6 fold
